Where a name gives a salt, the structure may show the parent alone. Read-outs that look alike come from different tables or passages of the source.
Experiments:
[1] = test system: SMN2 mRNA; experiment: RT-qPCR splicing assay, gene panel, SMN2 canonical junction (CJ) mRNA; type: cell-based; conditions: Homo sapiens, read-out: SMN2 CJ IC50
How it was run: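 A673 (DMEM/10% FBS) or K562 (IMDM/10% FBS) cells were treated 24 h at 37 °C with an 11-point 3-fold dilution series, top final 10 uM, DMSO ≤0.25%. Lysates underwent one-step RT-qPCR for the canonical-junction isoform with GAPDH, GUSB or PPIA as housekeeper. ΔΔCt versus DMSO was converted to RQ (2^−ΔΔCt), then to percent response.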

[2] = test system: K562 cells; experiment: Cell Titer Glo 2.0 cell viability assay; type: cell-based; conditions: Homo sapiens, 500 cells/well, 72 hours
How it was run: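 K562 cells (500/well) in IMDM with 10% FBS were exposed to serially diluted compounds at 0.1% DMSO final. After 72 h at 37° C, 5% CO2, viability was read by CellTiter-Glo 2.0 luminescence, with medium-only blanks.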

[3] = decrease in CJ mRNA levels, larger panel of genes, Table 3

Compound	IC50 [1, 3]	GI50 [2]	IC50 [1]
Cc1cn2nc(-c3cc(O)c4nn(C5CCNCC5)cc4c3)cc(C)c2n1 [Compound 156, 5-(2,8-dimethylimidazo[1,2-b]pyridazin-6-yl)-2-(piperidin-4-yl)-2H-indazol-7-ol]	100 to 1000 nM	1000 to 10000 nM	
Cc1cn2cc(-c3cc(F)c4nn(C5CCNCC5)cc4c3)cc(Cl)c2n1 [Compound 127, 5-(8-chloro-2-methylimidazo[1,2-a]pyridin-6-yl)-7-fluoro-2-(piperidin-4-yl)-2H-indazole hydrochloride salt]	< 100 nM	100 to 1000 nM	
Cc1c(O)c(-c2ccc3nn(C4CCNCC4)nc3n2)cc2cn(C)nc12 [Compound 113, 2,7-dimethyl-5-[2-(4-piperidyl)triazolo[4,5-b]pyridin-5-yl]indazol-6-ol]	1000 to 10000 nM	1000 to 10000 nM	
COC1=C(C)C2N=C(C)OC2C=C1c1cc(F)c2nn(C3CCNCC3)cc2n1 (centres unmarked) [Compound 144]	1000 to 10000 nM	1000 to 10000 nM	
Cn1cc2cc(-c3cc(F)c4nn(C5CCNCC5)nc4c3)cc(F)c2n1 [Compound 103, 4-fluoro-6-(7-fluoro-2-methyl-indazol-5-yl)-2-(4-piperidyl) benzotriazole]	100 to 1000 nM	1000 to 10000 nM	
Cc1cc(-n2cc3cc(C4CCNCC4)cc(F)c3n2)cc2cn(C)nc12 [Compound 115, 2-(2,7-dimethylindazol-5-yl)-7-fluoro-5-(4-piperidyl)indazole]	100 to 1000 nM	1000 to 10000 nM	
CCN1CCC(n2cc3cc(-c4cc(F)c5nn(C)cc5c4)cc(F)c3n2)CC1 [Compound 104, 2-(1-ethyl-4-piperidyl)-7-fluoro-5-(7-fluoro-2-methyl-indazol-5-yl)indazole]	< 100 nM	1000 to 10000 nM	
Cc1nc2c(C)cc(-n3cc4cc(N5CCNCC5)cc(F)c4n3)cc2o1 [Compound 119, 6-(7-fluoro-5-piperazin-1-yl-indazol-2-yl)-2,4-dimethyl-1,3-benzoxazole]	1000 to 10000 nM	> 10000 nM	
Cc1nc2c(C)c(O)c(-c3cc(F)c4nn(C5CCNCC5)cc4c3)cc2o1 [Compound 123, 6-[7-fluoro-2-(4-piperidyl)indazol-5-yl]-2,4-dimethyl-1,3-benzoxazol-5-ol]	100 to 1000 nM	1000 to 10000 nM	
Cc1cn2cc(-c3cc(F)c4nn(C5CCNCC5)cc4c3)cc(F)c2n1 [Compound 129, 7-fluoro-5-(8-fluoro-2-methylimidazo[1,2-a]pyridin-6-yl)-2-(piperidin-4-yl)-2H-indazole]	< 100 nM	100 to 1000 nM	
Fc1cc(-c2ccc3ncccc3c2)cc2cn(C3CCNCC3)nc12 [Compound 162, 6-[7-fluoro-2-(4-piperidyl)indazol-5-yl]quinoline]	1000 to 10000 nM	1000 to 10000 nM	
Cn1cc2cc(-c3cc(F)c4nn(C5CCNCC5)cc4c3)ccc2n1 [Compound 145, 7-fluoro-5-(2-methylindazol-5-yl)-2-(4-piperidyl)indazole]	< 100 nM	1000 to 10000 nM	
COc1cc(-c2cc(C)c3nc(C)cn3n2)cc2cn(C3CCNCC3)nc12 [Compound 155, 6-(7-methoxy-2-(piperidin-4-yl)-2H-indazol-5-yl)-2,8-dimethylimidazo [1,2-b]pyridazine]	< 100 nM	100 to 1000 nM	
Cc1cn2nc(-c3cc(F)c4nn(C5CCNC6(CC6)C5)cc4c3)cc(C)c2n1 (centres unmarked) [Compound 171, 6-[2-(4-azaspiro[2.5]octan-7-yl)-7-fluoro-indazol-5-yl]-2,8-dimethyl-imidazo[1,2-b]pyridazine]	< 100 nM	100 to 1000 nM	
Cn1cc2cc(-c3ccc4nn(C5CCNCC5)cc4n3)c(O)cc2n1 [Compound 110, 2-methyl-5-[2-(4-piperidyl)pyrazolo[4,3-b]pyridin-5-yl]indazol-6-ol]	< 100 nM	1000 to 10000 nM	
Cc1cn2nc(-c3cc(F)c4nn(CC5CCNCC5)cc4c3)cc(C)c2n1 [Compound 212, 6-[7-fluoro-2-(4-piperidylmethyl)indazol-5-yl]-2,8-dimethyl-imidazo[1,2-b]pyridazine]	< 100 nM	100 to 1000 nM	
Cc1cn2nc(-c3cc(F)c4nn(C5CCN(C6CCC6)C6(CC6)C5)cc4c3)cc(C)c2n1 (centres unmarked) [Compound 186, 6-[2-(4-cyclobutyl-4-azaspiro[2.5]octan-7-yl)-7-fluoro-indazol-5-yl]-2,8-dimethyl-imidazo[1,2-b]pyridazine]		100 to 1000 nM	< 100 nM
Cn1cc2cc(-c3ccc4nn(C5CCNCC5)cc4c3)cc(F)c2n1 [Compound 105, 7-fluoro-2-methyl-5-[2-(4-piperidyl)indazol-5-yl]indazole]	< 100 nM	100 to 1000 nM	
Cc1cn2cc(-c3cc(F)c4nn(C5CCNCC5)cc4c3)nc(C)c2n1 [Compound 132, 6-[7-fluoro-2-(4-piperidyl)indazol-5-yl]-2,8-dimethyl-imidazo[1,2-a]pyrazine]	100 to 1000 nM	1000 to 10000 nM	

Compound	IC50 [1, 3]	GI50 [2]	IC50 [1]
Cc1nc2ccc(-c3cc(F)c4nn(C5CCNCC5)cc4c3)cc2s1 [Compound 134, 6-(7-fluoro-2-(piperidin-4-yl)-2H-indazol-5-yl)-2-methylbenzo[d]thiazole]	100 to 1000 nM	1000 to 10000 nM	
Cc1ccc2nc(-c3cc(F)c4nn(C5CCNCC5)cc4c3)ccc2n1 [Compound 157, 2-[7-fluoro-2-(4-piperidyl)indazol-5-yl]-6-methyl-1,5-naphthyridine]	1000 to 10000 nM	> 10000 nM	
Cn1cc2cc(-c3ccc4cn(C5CCNCC5)nc4c3)cc(F)c2n1 [Compound 148, 7-fluoro-2-methyl-5-[2-(4-piperidyl)indazol-6-yl]indazole]	1000 to 10000 nM	> 10000 nM	
Cc1cn2nc(-c3cc(F)c4nn(C5CCNCC5F)cc4c3)cc(C)c2n1 (centres unmarked) [Compound 166, 6-[7-fluoro-2-(3-fluoro-4-piperidyl)indazol-5-yl]-2,8-dimethyl-imidazo [1,2-b]pyridazine]	< 100 nM	1000 to 10000 nM	
Cc1cn2nc(-c3cc(F)c4nn(C5CCN(C)C6(CC6)C5)cc4c3)cc(C)c2n1 (centres unmarked) [Compound 174, 6-[7-fluoro-2-(4-methyl-4-azaspiro[2.5]octan-7-yl)indazol-5-yl]-2,8-dimethyl-imidazo[1,2-b]pyridazine]	< 100 nM	100 to 1000 nM	
Cc1c(O)c(-c2cc(F)c3nn(C4CCNCC4)cc3c2)cc2cn(C)nc12 [Compound 126, 5-[7-fluoro-2-(4-piperidyl)indazol-5-yl]-2,7-dimethyl-indazol-6-ol]	1000 to 10000 nM	> 10000 nM	
Cc1cn2nc(-c3cc(F)c4nn(C5CCN(CCO)C6(CC6)C5)cc4c3)cc(C)c2n1 (centres unmarked) [Compound 180, 2-[7-[5-(2,8-dimethylimidazo[1,2-b]pyridazin-6-yl)-7-fluoro-indazol-2-yl]-4-azaspiro[2.5]octan-4-yl]ethanol]		100 to 1000 nM	< 100 nM
Cc1cn2nc(-c3cc(F)c4nn([C@@H]5CCNC6(CC6)C5)cc4c3)cc(C)c2n1 [Compound 173]	< 100 nM	100 to 1000 nM	
Cc1cn2nc(-c3cc4cn(C5CCNCC5)nc4cc3O)cc(C)c2n1 [Compound 154, 5-(2,8-dimethylimidazo[1,2-b]pyridazin-6-yl)-2-(piperidin-4-yl)-2H-indazol-6-ol]	< 100 nM	100 to 1000 nM	
Cc1cn2nc(-c3cc(F)c4nn([C@H]5CCNC[C@@H]5F)cc4c3)cc(C)c2n1 [Compound 167, 6-(7-fluoro-2-((3S,4S)-3-fluoropiperidin-4-yl)-2H-indazol-5-yl)-2,8-dimethylimidazo[1,2-b]pyridazine]	< 100 nM	1000 to 10000 nM	
Cc1cn2nc(-c3cc(F)c4nn(C5CCN(CC6CC6)C6(CC6)C5)cc4c3)cc(C)c2n1 (centres unmarked) [Compound 183, 6-[2-[4-(cyclopropylmethyl)-4-azaspiro[2.5]octan-7-yl]-7-fluoro-indazol-5-yl]-2,8-dimethyl-imidazo[1,2-b]pyridazine]	< 100 nM	100 to 1000 nM	
COc1cc(-c2cc3cn(C)nc3cc2O)nc2cn(C3CCNCC3)nc12 [Compound 140, 5-[7-methoxy-2-(4-piperidyl)pyrazolo[4,3-b]pyridin-5-yl]-2-methyl-indazol-6-ol]	100 to 1000 nM	> 10000 nM	
Fc1cc(-c2ccc3cnccc3c2)cc2cn(C3CCNCC3)nc12 [Compound 161, 6-[7-fluoro-2-(4-piperidyl)indazol-5-yl]isoquinoline]	100 to 1000 nM	1000 to 10000 nM	
Cc1cn2nc(-c3cc(F)c4nn(C5CCNCC5)cc4c3)cc2c(C)n1 [Compound 124, 2-[7-fluoro-2-(4-piperidyl)indazol-5-yl]-4,6-dimethyl-pyrazolo[1,5-a]pyrazine]	< 100 nM	100 to 1000 nM	
CCN1CCC(n2cc3cc(-c4cc(C)c5nc(C)cn5n4)cc(F)c3n2)CC1 [Compound 146, 6-[2-(1-ethyl-4-piperidyl)-7-fluoro-indazol-5-yl]-2,8-dimethyl-imidazo[1,2-b]pyridazine]	< 100 nM	100 to 1000 nM	
Cc1cn2nc(-c3cc(F)c4nn(C5CCN(CCO)CC5)cc4c3)cc(C)c2n1 [Compound 160, 2-[4-[5-(2,8-dimethylimidazo[1,2-b]pyridazin-6-yl)-7-fluoro-indazol-2-yl]-1-piperidyl]ethanol]		100 to 1000 nM	< 100 nM
COc1cc2nn(C3CCNCC3)cc2cc1-c1cc(C)c2nc(C)cn2n1 [Compound 159, 6-(6-methoxy-2-(piperidin-4-yl)-2H-indazol-5-yl)-2,8-dimethylimidazo[1,2-b]pyridazine]	> 10000 nM	> 10000 nM	
Cc1cn2nc(-c3cc4cn(C5CCNCC5)nc4cn3)cc(C)c2n1 [Compound 147, 2,8-dimethyl-6-[2-(4-piperidyl)pyrazolo[3,4-c]pyridin-5-yl]imidazo[1,2-b]pyridazine]	100 to 1000 nM	100 to 1000 nM	
